Measurements reported in DBAASP.
≈ marks a conversion by molar mass, not a printed value. Where “and” joins values, the source holds several entries; their conditions need not be identical. Equal entries are not always repeated.

Tests used:
Experiment in all cases: ≥ marks a high value that may be exact or a test limit, other limits are often not marked, values filed in µg/mL are converted to µM
[1] = tested on: Staphylococcus aureus ATCC 2592
[2] = tested on: Candida albicans ATCC 2002
[3] = tested on: Escherichia coli ATCC 25922
[4] = tested on: Pseudomonas aeruginosa ATCC 9027
Staphylococcus aureus = tested on: Staphylococcus aureus
Escherichia coli B = tested on: Escherichia coli B
Bacillus subtilis 168 = tested on: Bacillus subtilis 168
Pseudomonas aeruginosa = tested on: Pseudomonas aeruginosa
Escherichia coli JW0013 = tested on: Escherichia coli JW0013
[5] = tested on: Salmonella enterica subsp. enterica serovar Typhimurium C77-31
Escherichia coli UB1005 = tested on: Escherichia coli UB1005
[6] = tested on: Enterococcus faecalis ATCC 29212
[7] = tested on: Staphylococcus epidermidis ATCC 12228
[8] = tested on: Staphylococcus aureus ATCC 29213
Bacillus subtilis = tested on: Bacillus subtilis
Acinetobacter baumannii = tested on: Acinetobacter baumannii
[9] = tested on: Staphylococcus aureus ATCC 25923
Escherichia coli = tested on: Escherichia coli

Row | SMILES | MIC [1] [µM] | MIC [2] [µM] | MIC [3] | MIC (Staphylococcus aureus) [µM] | MIC (Pseudomonas aeruginosa) [µM] | further results
1 | CC[C@H](C)[C@H](NC(=O)[C@H](CCCN=C(N)N)NC(=O)[C@@H](NC(=O)[C@@H]1CCCN1C(=O)[C@@H](NC(=O)[C@@H](NC(=O)[C@H](CCC(N)=O)NC(=O)[C@@H]1CCCN1C(=O)[C@@H](NC(=O)[C@@H](NC(=O)[C@H](Cc1cnc[nH]1)NC(=O)[C@@H]1CCCN1C(=O)[C@@H]1CCCN1C(=O)[C@@H](NC(=O)CNC(=O)[C@H](Cc1c[nH]c2ccccc12)NC(=O)[C@H](C)NC(=O)[C@H](CCCCN)NC(=O)[C@H](C)N)[C@@H](C)CC)C(C)C)[C@@H](C)CC)[C@@H](C)CC)C(C)C)C(C)C)C(=O)N[C@@H](CCCN=C(N)N)C(=O)N1CCC[C@H]1C(=O)N[C@@H](CC(C)C)C(=O)NCC(=O)NCC(=O)N[C@@H](CC(N)=O)C(=O)N[C@H](C(=O)O)C(C)C [AKAWGIPPHVIPQIVPVRIRPLGGNV] | 1.15 (≈ 3.2 µg/mL) | 8.98 (≈ 25 µg/mL) | 8.98 µM (≈ 25 µg/mL) |  |  | 
2 | CC(C)C[C@H](NC(=O)[C@H](CC(C)C)NC(=O)[C@H](Cc1ccccc1)NC(=O)[C@@H]1CCCN1C(=O)[C@H](CC(C)C)NC(=O)[C@@H](N)Cc1ccccc1)C(=O)N[C@@H](CO)C(=O)N[C@@H](C)C(=O)N[C@@H](CC(C)C)C(=O)N1CCC[C@H]1C(=O)N[C@@H](CCCCN)C(=O)N[C@H](C(=O)N[C@@H](Cc1ccccc1)C(=O)N[C@H]1CSSC[C@@H](C(=O)O)NC(=O)[C@H](CCCCN)NC(=O)[C@H](CCCCN)NC(=O)[C@H](CO)NC(=O)[C@H](Cc2ccccc2)NC(=O)[C@H](Cc2ccccc2)NC1=O)C(C)C [FLPFLLSALPKVFCFFSKKC] | 8 (≈ 18.7 µg/mL) | ≥ 43 | 16 µM (≈ 37.3 µg/mL) |  |  | MIC [4]: 32 µM (≈ 74.7 µg/mL)
3 | CC[C@H](C)[C@H](NC(=O)[C@@H]1CCCN1C(=O)[C@H](CCCN=C(N)N)NC(=O)[C@@H]1CCCN1C(=O)[C@@H](NC(=O)[C@@H]1CCCN1C(=O)[C@H](CC(C)C)NC(=O)[C@@H](N)Cc1ccccc1)[C@@H](C)CC)C(=O)N[C@@H](CC(C)C)C(=O)N[C@@H](CC(C)C)C(=O)NCC(=O)N[C@@H](CC(C)C)C(=O)N[C@@H](CC(C)C)C(N)=O [FLPIPRPILLGLL] | 6.84 (≈ 9.99 µg/mL) | 17.1 (≈ 25 µg/mL) | 20.5 µM (≈ 30 µg/mL) |  |  | 
4 | CSCC[C@H](NC(=O)[C@@H](NC(=O)[C@H](CCCCN)NC(=O)[C@H](Cc1cnc[nH]1)NC(=O)[C@H](CC(C)C)NC(=O)CN)C(C)C)C(=O)N[C@@H](CCCN=C(N)N)C(=O)N[C@@H](CCC(=O)O)C(=O)N[C@H](C(=O)N[C@@H](CC(C)C)C(=O)NCC(=O)N[C@@H](Cc1ccc(O)cc1)C(=O)N[C@@H](CCC(=O)O)C(=O)N[C@@H](CCCN=C(N)N)C(=O)N[C@@H](CC(N)=O)C(=O)N[C@@H](CO)C(=O)N[C@@H](Cc1ccc(O)cc1)C(=O)N[C@@H](CCCCN)C(=O)N[C@@H](CCCCN)C(=O)N[C@@H](Cc1ccccc1)C(=O)N[C@@H](Cc1ccccc1)C(=O)N[C@@H](CC(C)C)C(=O)N[C@@H](CCCN=C(N)N)C(=O)O)C(C)C [GLHKVMREVLGYERNSYKKFFLR] | 1.29 (≈ 3.7 µg/mL) | 2.61 (≈ 7.5 µg/mL) | 10.4 µM (≈ 30 µg/mL) |  |  | 
5 | CC[C@H](C)[C@H](NC(=O)[C@H](CC(C)C)NC(=O)[C@H](CCCCN)NC(=O)CNC(=O)[C@H](CC(C)C)NC(=O)[C@@H](NC(=O)[C@H](CCCCN)NC(=O)[C@H](CO)NC(=O)[C@H](Cc1c[nH]c2ccccc12)NC(=O)[C@H](CCSC)NC(=O)CN)[C@@H](C)CC)C(=O)N[C@@H](CCCN=C(N)N)C(N)=O [GMWSKILGKLIR] |  |  |  | 9.2 (≈ 12.9 µg/mL) | 26.3 (≈ 36.8 µg/mL) | MIC (Escherichia coli B): 3.7 µM (≈ 5.18 µg/mL); MIC (Bacillus subtilis 168): 0.9 µM (≈ 1.26 µg/mL)
6 | CC[C@H](C)[C@H](NC(=O)[C@H](CC(C)C)NC(=O)[C@@H]1CCCN1C(=O)CNC(=O)[C@H](CC(C)C)NC(=O)[C@@H](NC(=O)[C@H](CCCCN)NC(=O)[C@H](CO)NC(=O)[C@H](Cc1c[nH]c2ccccc12)NC(=O)[C@H](CCSC)NC(=O)CN)[C@@H](C)CC)C(=O)N[C@@H](CCCN=C(N)N)C(N)=O [GMWSKILGPLIR] |  |  |  | > 100 | > 100 | MIC (Escherichia coli B): 30 µM (≈ 41.1 µg/mL); MIC (Bacillus subtilis 168): 3.6 µM (≈ 4.93 µg/mL)
7 | CC[C@H](C)[C@H](NC(=O)[C@H](CC(C)C)NC(=O)[C@H](Cc1cnc[nH]1)NC(=O)CNC(=O)[C@H](CC(C)C)NC(=O)[C@@H](NC(=O)[C@H](CCCCN)NC(=O)[C@H](CO)NC(=O)[C@H](Cc1c[nH]c2ccccc12)NC(=O)[C@@H](N)CCSC)[C@@H](C)CC)C(=O)N[C@@H](CCCN=C(N)N)C(N)=O [MWSKILGHLIR] |  |  |  | 45 (≈ 60.9 µg/mL) | > 100 | MIC (Escherichia coli B): ≥ 50 µM; MIC (Bacillus subtilis 168): 5 µM (≈ 6.76 µg/mL)
8 | CC[C@H](C)[C@H](NC(=O)[C@H](CCCN=C(N)N)NC(=O)[C@H](CCCN=C(N)N)NC(=O)[C@@H]1CCCN1C(=O)[C@@H]1CCCN1C(=O)[C@H](CCCN=C(N)N)NC(=O)[C@@H]1CCCN1C(=O)[C@H](CCCN=C(N)N)NC(=O)[C@@H]1CCCN1C(=O)[C@H](CC(C)C)NC(=O)[C@H](Cc1ccc(O)cc1)NC(=O)[C@@H]1CCCN1C(=O)[C@@H]1CCCN1C(=O)[C@H](CCCCN)NC(=O)[C@H](CC(=O)O)NC(=O)[C@@H]1CCCN1)C(=O)N[C@@H](Cc1ccc(O)cc1)C(=O)N[C@@H](CC(N)=O)C(=O)N[C@@H](CCCN=C(N)N)C(N)=O [PDKPPYLPRPRPPRRIYNR] |  |  |  |  |  | MIC (Escherichia coli JW0013): 2.01 µM (≈ 4.8 µg/mL)
9 | CC[C@H](C)[C@H](NC(=O)[C@H](CCCN=C(N)N)NC(=O)[C@H](CCCN=C(N)N)NC(=O)[C@H](CC(C)C)NC(=O)[C@H](CCCN=C(N)N)NC(=O)[C@H](Cc1c[nH]c2ccccc12)NC(=O)[C@H](CCCN=C(N)N)NC(=O)[C@@H](NC(=O)[C@H](CCCN=C(N)N)NC(=O)[C@H](Cc1c[nH]c2ccccc12)NC(=O)[C@H](CCCN=C(N)N)NC(=O)[C@H](CC(C)C)NC(=O)[C@H](CCCN=C(N)N)NC(=O)[C@H](CCCN=C(N)N)NC(=O)[C@H](Cc1ccccc1)NC(=O)[C@@H](N)CCCN=C(N)N)[C@@H](C)O)C(N)=O [RFRRLRWRTRWRLRRI] |  |  | 4 µM and 8 µM |  |  | MIC [5]: 4 µM (≈ 9.53 µg/mL); MIC (Escherichia coli UB1005): 2 µM (≈ 4.77 µg/mL); MIC [6]: 2 µM (≈ 4.77 µg/mL); MIC [7]: 4 µM (≈ 9.53 µg/mL); MIC [8]: 4 µM and 8 µM
10 | CC[C@H](C)[C@H](NC(=O)[C@H](CCC(N)=O)NC(=O)[C@H](CCCCN)NC(=O)[C@H](Cc1c[nH]c2ccccc12)NC(=O)[C@H](CC(C)C)NC(=O)[C@H](CCC(N)=O)NC(=O)[C@@H]1CCCN1C(=O)[C@H](CC(C)C)NC(=O)[C@H](CCCCN)NC(=O)[C@H](C)NC(=O)[C@H](CCC(=O)O)NC(=O)[C@H](CCCCN)NC(=O)[C@@H](NC(=O)CNC(=O)[C@@H](NC(=O)[C@@H](NC(=O)[C@@H](NC(=O)[C@@H](N)CO)[C@@H](C)CC)[C@@H](C)CC)[C@@H](C)O)[C@@H](C)O)C(=O)N[C@@H](C)C(=O)N[C@H]1CSSC[C@@H](C(=O)O)NC(=O)[C@H]([C@@H](C)O)NC(=O)[C@H](CC(N)=O)NC(=O)[C@H](Cc2ccc(O)cc2)NC(=O)[C@H](CC(C)C)NC(=O)[C@H](CCCN=C(N)N)NC1=O [SIITGTKEAKLPQLWKQIACRLYNTC] | 5.03 (≈ 15 µg/mL) | 10.1 (≈ 30 µg/mL) | 20.1 µM (≈ 60 µg/mL) |  |  | MIC (Bacillus subtilis): ≥ 40.3 µM
11 | CC[C@H](C)[C@H](NC(=O)[C@H](CCCN=C(N)N)NC(=O)[C@H](CCCN=C(N)N)NC(=O)[C@@H]1CCCN1C(=O)[C@@H]1CCCN1C(=O)[C@H](CCCN=C(N)N)NC(=O)[C@H](CCCCN)NC(=O)[C@H](CCCN=C(N)N)NC(=O)[C@@H]1CCCN1C(=O)[C@H](CC(C)C)NC(=O)[C@H](CCCN=C(N)N)NC(=O)[C@@H]1CCCN1C(=O)[C@H](CCCCN)NC(=O)[C@H](CCCCN)NC(=O)[C@H](CC(=O)O)NC(=O)[C@@H](N)C(C)C)C(=O)N[C@@H](Cc1ccc(O)cc1)C(=O)N[C@@H](CC(N)=O)C(=O)N[C@@H](CCCN=C(N)N)C(N)=O [VDKKPRLPRKRPPRRIYNR] |  |  |  |  |  | MIC (Escherichia coli JW0013): 0.695 µM (≈ 1.7 µg/mL)
12 | CC[C@H](C)[C@H](NC(=O)[C@H](CCCN=C(N)N)NC(=O)[C@H](CCCN=C(N)N)NC(=O)[C@@H]1CCCN1C(=O)[C@@H]1CCCN1C(=O)[C@H](CCCN=C(N)N)NC(=O)[C@@H]1CCCN1C(=O)[C@H](CCCN=C(N)N)NC(=O)[C@@H]1CCCN1C(=O)[C@H](CC(C)C)NC(=O)[C@@H](NC(=O)[C@@H]1CCCN1C(=O)[C@@H]1CCCN1C(=O)[C@H](CCCCN)NC(=O)[C@H](CC(=O)O)NC(=O)[C@@H](N)C(C)C)C(C)C)C(=O)N[C@@H](Cc1ccc(O)cc1)C(=O)N[C@@H](CC(N)=O)C(=O)N[C@@H](CCCN=C(N)N)C(N)=O [VDKPPVLPRPRPPRRIYNR] |  |  |  |  |  | MIC (Escherichia coli JW0013): 2.06 µM (≈ 4.8 µg/mL)
13 | CC[C@H](C)[C@H](NC(=O)[C@H](CCCCN)NC(=O)[C@H](Cc1c[nH]c2ccccc12)NC(=O)[C@H](CCCCN)NC(=O)[C@@H](NC(=O)[C@H](CCCCN)NC(=O)[C@H](Cc1c[nH]c2ccccc12)NC(=O)[C@H](CCCCN)NC(=O)[C@@H](NC(=O)[C@H](CCCCN)NC(=O)[C@@H](N)Cc1c[nH]c2ccccc12)[C@@H](C)CC)[C@@H](C)CC)C(=O)N[C@@H](CCCCN)C(N)=O [WKIKWKIKWKIK] |  |  | 2 µM (≈ 3.37 µg/mL) | 2 (≈ 3.37 µg/mL) | 4 (≈ 6.74 µg/mL) | MIC (Acinetobacter baumannii): 1.41 µM (≈ 2.38 µg/mL); MIC [5]: 2 µM (≈ 3.37 µg/mL); MIC (Escherichia coli UB1005): 2 µM (≈ 3.37 µg/mL); MIC [9]: 2 µM (≈ 3.37 µg/mL); MIC [7]: 2 µM (≈ 3.37 µg/mL); MIC [8]: 2 µM (≈ 3.37 µg/mL); MIC (Escherichia coli): 2 µM (≈ 3.37 µg/mL)
